Data reported in patent US20100144712A1 (priority 2007, published 2010).
Values after ≈ are worked out from the molar mass of the structure shown. Where two headings read alike, the source gives them in different places.

What was measured:
Format in all cases: cell-based
[1] = tested on: Aspergillus fumigatus MYA-1163; assay: In vitro antifungal activity (MIC80), Aspergillus fumigatus MYA-1163; settings: Aspergillus fumigatus, MYA1163; Table 3, MYA-1163; read-out: Minimal inhibitory concentration (MIC80)
Description: (§1) In vitro antifungal activities of the inventive antifungal compounds were evaluated using test strains including Candida albican (ATCC 90873, 204276, 62342, 64124, 64550, 96901, MYA-573, MYA-574, MYA-575, MYA-576, MYA-1003) and Aspergillus fumigatus (ATCC 16424). Test samples and positive control samples were prepared by dissolving the inventive compounds and comparative compounds, i.e., amphotericin B, fluconazole and itraconazole, in DMSO, respectively, and each successively diluted with medium to obtain test and positive control solutions having test compound concentrations of 0.125 μg/ml to a maximum concentration not generating turbidity. Minimal inhibitory concentration (MIC80) of each compound was determined as the lowest concentration of the test compounds required to reduce growth by 80% relative to a control strain not treated.
(§2) 3) Preparation of test samples: the inventive compounds and comparative compounds were each diluted with DMSO to obtain 1 to 2 ml of a test sample in a concentration of 100-folds of the determining maximum concentration (256 μg/ml).
(§3) The test samples were each successively diluted with RPMI 1640 to obtain test solutions having concentrations of […] in a 12×75 mm sterilized disposable culture tube. The final concentration of DMSO was adjusted to […] (v/v).
(§4) Candida albican strains were each subcultured in Sabourad Dextrose Agar, YM Agar or Potato Dextrose Agar medium at 35° C. for 2˜3 days. In the case of yeasts, a single colony was taken from prominent colonies and suspended in 0.85% sterile physiological saline solution and the turbidity of the suspension was adjusted to 80˜82% at 530 nm, and then diluted 50-fold with RPMI 1640 medium to 1.0×10^3˜5.0×10^3 CFU/ml. The turbidity of fungi was adjusted to 80˜82% and the suspension was diluted 50-fold to […]. Aspergillus fumigatus strains were subcultured in Malt Extract Agar for 7˜10 days, and a single colony was taken from prominent colonies and suspended in 0.85% sterile physiological saline solution and the suspension was adjusted to 0.108 at 530 nm, and then diluted 1000-fold with RPMI 1640 medium to 0.4×10^2˜5×10^4 CFU/ml. The turbidity of fungi was adjusted to 80˜82% and the suspension was diluted 50-fold to 0.4102˜0.5104 CFU/ml.
(§5) The strain solutions thus obtained were each seeded into a sterilized 96-well microplate, 0.1 ml of each test solution were added thereto, and […] of alamarblue was treated to each well (Biosource, #DAL1100). This procedure was repeated 2 times.
(§6) Minimal inhibitory concentration (MIC80) of each compound was determined as the lowest concentration of the test compounds required to reduce growth by 80% relative to a control strain not treated.
(§7) MIC80 of each of the compounds of which antifungal activities can be confirmed by Table 2 was determined using other test strains, i.e., Aspergillus fumigatus ATCC 16424 and MYA-1163, Aspergillus terreus ATCC 28301, Aspergillus flavus ATCC MYA-1004, and Aspergillus niger ATCC 9142.

[2] = tested on: Candida albican ATCC 90873; assay: In vitro antifungal activity (MIC80), Candida albican ATCC 90873; settings: Candida, ATCC90873; Table 2, ATCC 90873; read-out: Minimal inhibitory concentration (MIC80)
Summary of the method: (§8)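 Broth microdilution in RPMI 1640 with 2% (v/v) final DMSO, test solutions 0.25 to 256 […]. Inoculum of 1.0×10^3–5.0×10^3 CFU/ml came from colonies grown 2–3 days at 35 °C, and alamarBlue was added. MIC80 is the lowest concentration reducing growth by 80% versus untreated control.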

[3] = tested on: Aspergillus fumigatus (ATCC 16424); assay: In vitro antifungal activity (MIC80), Aspergillus fumigatus ATCC 16424; settings: Aspergillus fumigatus, read-out: Minimal inhibitory concentration (MIC80)
Summary of the method: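 Broth dilution in RPMI 1640 with 2% (v/v) final DMSO; A. fumigatus inoculum from Malt Extract Agar subculture diluted 1000-fold to 0.4×10^2˜5×10^4 CFU/ml, alamarblue added, repeated 2 times. MIC80 is lowest concentration reducing growth 80% versus untreated control.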

[4] = tested on: Candida albican ATCC MYA-576; assay: In vitro antifungal activity (MIC80), Candida albican ATCC MYA-576; settings: Candida; Table 2, MYA 576; read-out: Minimal inhibitory concentration (MIC80)
Summary of the method: as §8

[5] = tested on: Aspergillus niger ATCC 9142; assay: In vitro antifungal activity (MIC80), Aspergillus niger ATCC 9142; settings: Aspergillus niger, ATCC9142; Table 3, ATCC 9142; read-out: Minimal inhibitory concentration (MIC80)
Description: as §1, §2, §3, §4, §5, §6, §7

[6] = tested on: Aspergillus flavus ATCC MYA-1004; assay: In vitro antifungal activity (MIC80), Aspergillus flavus ATCC MYA-1004; settings: Aspergillus flavus; Table 3, MYA-1004; read-out: Minimal inhibitory concentration (MIC80)
Description: as §1, §2, §3, §4, §5, §6, §7

[7] = tested on: Candida albican ATCC MYA-573; assay: In vitro antifungal activity (MIC80), Candida albican ATCC MYA-573; settings: Candida; Table 2, MYA 573; read-out: Minimal inhibitory concentration (MIC80)
Summary of the method: as §8

[8] = tested on: Candida albican ATCC 96901; assay: In vitro antifungal activity (MIC80), Candida albican ATCC 96901; settings: Candida, ATCC96901; Table 2, ATCC 96901; read-out: Minimal inhibitory concentration (MIC80)
Summary of the method: as §8

[9] = tested on: Candida albican ATCC MYA-575; assay: In vitro antifungal activity (MIC80), Candida albican ATCC MYA-575; settings: Candida; Table 2, MYA 575; read-out: Minimal inhibitory concentration (MIC80)
Summary of the method: as §8

[10] = tested on: Candida albican ATCC 64124; assay: In vitro antifungal activity (MIC80), Candida albican ATCC 64124; settings: Candida, ATCC64124; Table 2, 64124; read-out: Minimal inhibitory concentration (MIC80)
Summary of the method: as §8

[11] = tested on: Candida albican ATCC MYA-574; assay: In vitro antifungal activity (MIC80), Candida albican ATCC MYA-574; settings: Candida; Table 2, MYA 574; read-out: Minimal inhibitory concentration (MIC80)
Summary of the method: as §8

[12] = tested on: Candida albican ATCC MYA-1003; assay: In vitro antifungal activity (MIC80), Candida albican ATCC MYA-1003; settings: Candida; Table 2, MYA 1003; read-out: Minimal inhibitory concentration (MIC80)
Summary of the method: as §8

[13] = tested on: Candida albican ATCC 62342; assay: In vitro antifungal activity (MIC80), Candida albican ATCC 62342; settings: Candida, ATCC62342; Table 2, 62342; read-out: Minimal inhibitory concentration (MIC80)
Summary of the method: as §8

[14] = tested on: Aspergillus terreus ATCC 28301; assay: In vitro antifungal activity (MIC80), Aspergillus terreus ATCC 28301; settings: Aspergillus terreus, ATCC28301; Table 3, ATCC 28301; read-out: Minimal inhibitory concentration (MIC80)
Description: as §1, §2, §3, §4, §5, §6, §7

[15] = tested on: Candida albican ATCC 64550; assay: In vitro antifungal activity (MIC80), Candida albican ATCC 64550; settings: Candida, ATCC64550; Table 2, 64550; read-out: Minimal inhibitory concentration (MIC80)
Summary of the method: as §8

MIC80 [1]	MIC80 [2]	MIC80 ([3]; ATCC16424, Table 2, ATCC 16424)	MIC80 ([3]; ATCC16424, Table 3, ATCC 16424)	MIC80 [4]	MIC80 [5]	MIC80 [6]	MIC80 [7]	MIC80 [8]	MIC80 [9]	MIC80 [10]	MIC80 [11]	MIC80 [12]	MIC80 [13]	MIC80 [14]	MIC80 [15]	Structure (SMILES)
1 µg/mL (≈ 1.98 µM)	0.125 µg/mL (≈ 0.248 µM)	0.5 µg/mL (≈ 0.99 µM)	0.5 µg/mL (≈ 0.99 µM)	0.125 µg/mL (≈ 0.248 µM)	2 µg/mL (≈ 3.96 µM)	1 µg/mL (≈ 1.98 µM)	0.125 µg/mL (≈ 0.248 µM)	2 µg/mL (≈ 3.96 µM)	0.125 µg/mL (≈ 0.248 µM)	8 µg/mL (≈ 15.8 µM)	0.25 µg/mL (≈ 0.495 µM)	> 128 µg/mL	0.125 µg/mL (≈ 0.248 µM)	1 µg/mL (≈ 1.98 µM)	0.5 µg/mL (≈ 0.99 µM)	C[C@@H](N1CCN(c2nc3ccc(Cl)cc3s2)CC1)[C@](O)(Cn1cncn1)c1ccc(F)cc1F [Example 4, (2R,3R)-3-(4-(6-chlorobenzothiazol-2-yl)piperazin-1-yl)-2-(2,4-difluorophenyl)-1-(1H-1,2,4-triazol-1-yl)butan-2-ol]
0.5 µg/mL (≈ 0.709 µM)	0.125 µg/mL (≈ 0.177 µM)	0.25 µg/mL (≈ 0.354 µM)	0.125 µg/mL (≈ 0.177 µM)	0.125 µg/mL (≈ 0.177 µM)	1 µg/mL (≈ 1.42 µM)	0.25 µg/mL (≈ 0.354 µM)	0.5 µg/mL (≈ 0.709 µM)	> 128 µg/mL	0.125 µg/mL (≈ 0.177 µM)	> 128 µg/mL	> 128 µg/mL	> 128 µg/mL	0.25 µg/mL (≈ 0.354 µM)	0.25 µg/mL (≈ 0.354 µM)	0.5 µg/mL (≈ 0.709 µM)	CCC(C)n1ncn(-c2ccc(N3CCN(c4ccc(OCC5COC(Cn6cncn6)(c6ccc(Cl)cc6Cl)O5)cc4)CC3)cc2)c1=O (centres unmarked) [I, itraconazole, reference compound]
